Where two headings read alike, the source gives them in different places.
Experiments:
[1] = molecular target: T1, CNGA3 plus CNGB3-F525N channels (Homo sapiens, UniProt Q16281+Q9NQW8, F525N); assay: Inside-out patch-clamp recording of channels expressed in Xenopus oocytes (CNGB3 F525N); assay type: biochemical
T1 construct: expressed in transfected cells; host or cells: Xenopus laevis oocytes injected with cRNA transcribed from pGEMHE constructs
T1 sequence (Q16281 1-694): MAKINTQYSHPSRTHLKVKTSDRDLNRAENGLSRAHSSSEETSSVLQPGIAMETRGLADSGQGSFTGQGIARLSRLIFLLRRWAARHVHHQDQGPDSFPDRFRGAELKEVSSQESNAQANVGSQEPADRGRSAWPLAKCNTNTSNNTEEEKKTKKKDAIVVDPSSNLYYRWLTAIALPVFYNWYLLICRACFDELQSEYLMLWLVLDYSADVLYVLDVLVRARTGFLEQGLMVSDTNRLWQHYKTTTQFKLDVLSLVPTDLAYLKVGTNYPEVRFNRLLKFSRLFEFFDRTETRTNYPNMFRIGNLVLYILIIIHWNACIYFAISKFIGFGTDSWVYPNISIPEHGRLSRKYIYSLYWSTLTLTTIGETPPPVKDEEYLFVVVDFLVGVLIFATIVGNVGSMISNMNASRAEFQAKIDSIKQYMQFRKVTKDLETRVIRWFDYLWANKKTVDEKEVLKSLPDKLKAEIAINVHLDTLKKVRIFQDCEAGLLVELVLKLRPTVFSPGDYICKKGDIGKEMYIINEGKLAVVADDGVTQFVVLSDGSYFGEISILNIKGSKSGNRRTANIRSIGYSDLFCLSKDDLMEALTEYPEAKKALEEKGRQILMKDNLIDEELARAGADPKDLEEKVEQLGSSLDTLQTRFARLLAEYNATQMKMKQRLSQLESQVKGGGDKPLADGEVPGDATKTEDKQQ
T1 sequence (Q9NQW8 1-809 F525N): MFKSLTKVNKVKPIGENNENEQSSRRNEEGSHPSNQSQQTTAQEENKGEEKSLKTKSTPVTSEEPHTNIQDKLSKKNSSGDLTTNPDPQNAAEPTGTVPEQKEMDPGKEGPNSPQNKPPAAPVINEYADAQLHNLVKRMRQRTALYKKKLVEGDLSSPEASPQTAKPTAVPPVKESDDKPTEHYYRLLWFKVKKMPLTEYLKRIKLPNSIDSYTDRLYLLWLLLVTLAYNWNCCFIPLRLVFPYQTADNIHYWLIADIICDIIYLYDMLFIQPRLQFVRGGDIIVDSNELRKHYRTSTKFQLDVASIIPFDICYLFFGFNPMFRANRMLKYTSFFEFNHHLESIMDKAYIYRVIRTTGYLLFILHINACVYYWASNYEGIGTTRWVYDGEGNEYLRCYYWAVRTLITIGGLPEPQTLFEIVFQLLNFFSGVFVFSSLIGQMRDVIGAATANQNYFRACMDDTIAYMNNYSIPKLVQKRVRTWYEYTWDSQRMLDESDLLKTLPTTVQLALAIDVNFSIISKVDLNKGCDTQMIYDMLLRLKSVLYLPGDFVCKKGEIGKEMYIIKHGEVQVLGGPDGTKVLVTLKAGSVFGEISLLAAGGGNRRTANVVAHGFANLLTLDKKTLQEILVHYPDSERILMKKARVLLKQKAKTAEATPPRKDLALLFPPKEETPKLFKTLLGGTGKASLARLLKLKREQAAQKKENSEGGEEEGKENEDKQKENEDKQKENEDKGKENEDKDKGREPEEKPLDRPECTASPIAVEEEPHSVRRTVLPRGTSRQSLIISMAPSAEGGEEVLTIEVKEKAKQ
Method: (§1) For heterologous expression in Xenopus laevis oocytes, identical amounts of cDNA were linearized using SphI or NheI, and capped cRNA was transcribed in vitro using the T-7 RNA polymerase mMESSAGE mMACHINE® kit (Ambion, Austin, TX). cRNA concentrations and relative amounts were determined by denaturing gel electrophoresis and KODAK 1D image analysis software (Rochester, NY), as well as by spectrophotometry. […] Oocytes were incubated in ND96 (96 mM NaCl, 2 mM KCl, 1.8 mM CaCl2, 1 mM MgCl2, and 5 mM HEPES, pH 7.6, supplemented with 10 μg/ml gentamycin).
(§2) Two to seven days after microinjection of cRNA, patch-clamp experiments were performed using the inside-out configuration with an Axopatch 200B amplifier (Axon Instruments, Foster City, CA). Recordings were made at 20–23 °C. Data were acquired using Pulse software (HEKA Elektronik, Lambrecht, Germany). Current traces were elicited by voltage steps from a holding potential of 0 mV to +80 mV, then to −80 mV and back to 0 mV. Initial pipette resistances were 0.4–0.8 megaohms. Intracellular and extracellular solutions contained 130 mM NaCl, 0.2 mM EDTA, and 3 mM HEPES (pH 7.2). Intracellular solutions were exchanged using an RSC-160 rapid solution changer (Molecular Kinetics, Indianapolis, IN). Currents in the absence of cyclic nucleotides were subtracted. For channel activation by CPT-cGMP or CPT-cAMP, dose–response data were fitted with the Hill equation, I/Imax=([cNMP]^h/(K1/2^h + [cNMP]^h)), where I is the current amplitude at +80 mV, Imax is the maximum current elicited by saturating concentration of ligand, [cNMP] is the ligand concentration, K1/2 is the apparent ligand affinity, and h is the Hill slope. We measured sensitivity to block by L-cis-diltiazem (RBI, Natick, MA) applied to the intracellular face of the patch in the presence of 0.1 μM CPT-cGMP. Data were fit with a modified Hill equation in the form I blocker/I=(K1/2^h/(K1/2^h + [blocker]^h)). Data were analyzed using Igor (Wavemetrics, Lake Oswego, OR), SigmaPlot, and SigmaStat (Systat Software Inc., San Jose, CA). All values are reported as the mean±standard error of the mean of n experiments unless otherwise indicated. Statistical significance was determined using a Student t test or Mann–Whitney rank sum test, and a p value of <0.05 was considered significant.

[2] = molecular target: T2, CNGA3 plus CNGB3 T383fsX channels (Homo sapiens, UniProt Q16281); assay: Inside-out patch-clamp recording of channels expressed in Xenopus oocytes (CNGB3 T383fsX); assay type: biochemical
T2 construct: expressed in transfected cells; host or cells: Xenopus laevis oocytes injected with cRNA transcribed from pGEMHE constructs
T2 sequence (Q16281 1-694): T1 sequence (Q16281 1-694)
Method: as §1, §2

[3] = representative patch, Figure 5A
[4] = representative patch, Figure 1B

Row | SMILES | relative agonist efficacy Imax, CPT-cAMP/Imax, CPT-cGMP ([1]; +80 mV, CPT-cAMP 100 μM vs CPT-cGMP 4 μM, mean±SEM, n=15) | Hill slope h, CPT-cAMP activation ([1]; Hill fit, mean±SEM, n=15) | EC50 ([1]; Hill fit, mean±SEM, n=15, read-out: apparent affinity K1/2, CPT-cAMP (channel activation)) [µM] | Hill slope h, CPT-cAMP, representative dose-response [1, 3] | EC50 ([1]; representative patch, Figure 5A, read-out: K1/2,CPT-cAMP, representative dose-response) [µM] | relative agonist efficacy Imax, CPT-cAMP/Imax, CPT-cGMP ([2]; +80 mV, CPT-cAMP 100 μM vs CPT-cGMP 4 μM, mean±SEM, n=8) | Hill slope h, CPT-cAMP activation ([2]; Hill fit, mean±SEM, n=9) | EC50 ([2]; Hill fit, mean±SEM, n=9, read-out: apparent affinity K1/2, CPT-cAMP (channel activation)) [µM] | Hill slope h, CPT-cAMP, representative dose-response [2, 3] | EC50 ([2]; representative patch, Figure 5A, read-out: K1/2, cAMP, representative dose-response for CPT-cAMP activation) [µM] | Hill slope h, CPT-cGMP activation ([1]; +80 mV, Hill fit, mean±SEM) | EC50 ([1]; +80 mV, Hill fit, mean±SEM, read-out: apparent CPT-cGMP affinity K1/2, CPT-cGMP (channel activation)) [µM] | maximum patch current density (Imax/area) ([1]; +80 mV, saturating CPT-cGMP (4 μM), mean±SEM, n=15) [pA/μm^2] | Hill slope h, CPT-cGMP, representative dose-response [1, 4] | EC50 ([1]; representative patch, Figure 1B, read-out: K1/2,CPT-cGMP, representative dose-response) [µM] | Hill slope h, CPT-cGMP activation ([2]; +80 mV, Hill fit, mean±SEM, n=8) | EC50 ([2]; +80 mV, Hill fit, mean±SEM, n=8, read-out: apparent CPT-cGMP affinity K1/2, CPT-cGMP (channel activation)) [µM] | maximum patch current density (Imax/area) ([2]; +80 mV, saturating CPT-cGMP (4 μM), mean±SEM, n=9) [pA/μm^2] | Hill slope h, CPT-cGMP, representative dose-response [2, 4] | EC50 ([2]; representative patch, Figure 1B, read-out: K1/2, cGMP, representative dose-response for CPT-cGMP activation) [µM]
1 | Nc1ncnc2c1nc(Sc1ccc(Cl)cc1)n2[C@@H]1O[C@@H]2COP(=O)(O)O[C@H]2[C@H]1O [CPT-cAMP, CPT-adenosine 3′,5′-cyclic monophosphate] | 0.49±0.04 | 1.4±0.08 | 13.8 ± 1.4 | 1.0 | 10.8 | 0.07±0.01 | 1.8±0.1 | 29.8 ± 1.9 | 1.6 | 27.9 |  |  |  |  |  |  |  |  |  | 
2 | Nc1nc2c(nc(Sc3ccc(Cl)cc3)n2[C@@H]2O[C@@H]3COP(=O)(O)O[C@H]3[C@H]2O)c(=O)[nH]1 [CPT-cGMP, 8-(4-chlorophenylthio) guanosine 3′,5′-cyclic monophosphate] |  |  |  |  |  |  |  |  |  |  | 1.8±0.04 | 0.0868 ± 0.0106 | 80.3±18.6 | 1.7 | 0.079 | 2.2±0.1 | 0.105 ± 0.0073 | 86.6±17.0 | 1.9 | 0.111
